Reference: patent US20230112800A1 (priority 2021, published 2023)
pIC50: −log10 of the molar value. Like-named read-outs stand apart in the source and are kept apart here.

Columns and labels:
COVID-19 = settings: in-vitro isolate COVID-19, Vero E6 cells; cited from earlier work
SARS-CoV = settings: Vero cells infected by SARS-CoV (2002 pandemic); cited from earlier work
[1] = rats, niclosamide dose of 10 mg/kg by oral gavage, n = 5
[2] = CD-1 mice, 500 mg/kg suspended in 0.5% Methocel A4M

CCN(CC)CCCC(C)Nc1ccnc2cc(Cl)ccc12 (stereo not shown) [chloroquine]
pIC50 (COVID-19): 5.95
pIC50 (SARS-CoV): 5.36

O=C(Nc1ccc([N+](=O)[O-])cc1Cl)c1cc(Cl)ccc1O
AUCInf [1]: 188 (84) h*ng/mL
AUC_%Extrap_obs [1]: 8.4 (7.0) %
AUClast [1]: 168 (64) h*ng/mL
AUClast/D [1]: 16.8 (6.4) h*mg/mL
Cmax [1]: 48.3 (20.6) ng/mL
MRTInf_obs [1]: 3.56 (0.70) h
T1/2 [1]: 1.00 (0.30) h
Tmax [1]: 3.60 (0.89) h

O=C(Nc1ccc([N+](=O)[O-])cc1Cl)c1cc(Cl)ccc1O [Crystalline Nic]
AUC0-last [2]: 1454.6 ng·h/mL
Cmax [2]: 661.7 ng/mL
Tmax [2]: 30 min
